The record followed here is patent US20110152229A1, “BETULINIC ACID DERIVATIVES AS ANTI-HIV AGENTS” (Duke University, priority 2006, published 2011).

SMILES strings stand for the structures. Like-named read-outs stand apart in the source and are kept apart here.

Data set [1] has as its system HIV-1 NL4-3. Kind of data set: Anti-HIV assay: HIV-1 NL4-3 replication in MT4 cells (p24 ELISA). The class given is cell-based. The text has this: Anti-HIV assay: A previously known HIV-1 infectivity assay was used in the experiments (See Zhu, et al. Proc. Natl. Acad. Sci. U.S.A. 2001, 98, 15227). A 96-well microtiter plate was used to set up the HIV-1 NL4-3 replication assay. HIV-1 NL4-3 at a multiplicity of infection (MOI) of 0.01 was used to infect MT4 cells. Culture supernatants were collected on day 4 post infection for p24 assay using an ELISA kit from ZeptoMetrix Corporation (Buffalo, N.Y.). Cell fusion assay: TZM cells that express luciferase upon fusion with envelope-expressing COS cells were used as fusion partners. The fusion assays were performed by transfecting monkey kidney cells (COS) with the expression vector pSRHS that contains the HIV-1 NL4-3 envelope genes. Electroporation was performed to express the HIV-1 envelope on COS cells. Briefly, COS cells (10^6) in culture medium were incubated with 2 μg of the envelope expression vector on ice for 10 min. Electroporation was performed using a gene pulser (BioRad, Hercules, Calif.) with capacitance set at 950 μF and voltage at 150 V. The transfected COS cells were cultured for one day before mixing with TZM cells. TZM cells (10×10^4) were incubated with COS cells (10^4) in 96-well flat-bottomed plates (Costar) in 100 μl culture medium. Compounds to be tested at various concentrations in 10 μl of culture medium were incubated with the cell mixtures at 37° C. for 24 hours. A Promega luciferase assay kit was used to quantify luciferase activity in the fused cells using a Biotek luminometer. The drug concentration that reduced the control HIV-1 envelope-mediated fusion by 50% is defined as 50% effective concentration (EC50). HIV-1 maturation assay: MT4 cells (10^5 cells/mL) were infected with HIV-1 NL4-3 at a multiplicity of infection (MOI) of 0.01 infectious units/cells for three days. The culture medium was removed and the infected cells were resuspended at 5×10^5 cells/mL and treated with BA derivatives at various concentrations. The virions in the culture supernatant were collected one day after drug treatment. The viral particles were spun down and subjected to Western Blot analysis of p24 and p25 as previously described. (See Zhou, et al. J. Virol. 2004, 78, 922 and Zhou, et al., Retrovirology 2004, 1, 15.)
Table 1 illustrated the effect of compound 11, 16-20 and 18b against HIV-NL4-3 in MT4 cells.

The subject of data set [2] is MT4 cells. Kind of data set: Reduction of viable cells in a 4-day assay (MT4 cells). The format is cell-based. The settings on record: Homo sapiens, read-out: IC50 (drug concentration that resulted in a 50% reduction of viable cells).
The subject of data set [3] is HIV-1 NL4-3 envelope. Put plainly: Cell fusion assay (luciferase-based; TZM cells with envelope-expressing COS cells). To be noted: FIG. 1; TZM/COS fusion partners, luciferase readout. The text has this:
(§1) Anti-HIV assay: A previously known HIV-1 infectivity assay was used in the experiments (See Zhu, et al. Proc. Natl. Acad. Sci. U.S.A. 2001, 98, 15227). A 96-well microtiter plate was used to set up the HIV-1 NL4-3 replication assay. HIV-1 NL4-3 at a multiplicity of infection (MOI) of 0.01 was used to infect MT4 cells. Culture supernatants were collected on day 4 post infection for p24 assay using an ELISA kit from ZeptoMetrix Corporation (Buffalo, N.Y.). Cell fusion assay: TZM cells that express luciferase upon fusion with envelope-expressing COS cells were used as fusion partners. The fusion assays were performed by transfecting monkey kidney cells (COS) with the expression vector pSRHS that contains the HIV-1 NL4-3 envelope genes. Electroporation was performed to express the HIV-1 envelope on COS cells. Briefly, COS cells (10^6) in culture medium were incubated with 2 μg of the envelope expression vector on ice for 10 min. Electroporation was performed using a gene pulser (BioRad, Hercules, Calif.) with capacitance set at 950 μF and voltage at 150 V. The transfected COS cells were cultured for one day before mixing with TZM cells. TZM cells (10×10^4) were incubated with COS cells (10^4) in 96-well flat-bottomed plates (Costar) in 100 μl culture medium. […] A Promega luciferase assay kit was used to quantify luciferase activity in the fused cells using a Biotek luminometer. […]

For data set [4], the system named is HIV-1 p25 processing. Kind of data set: HIV-1 maturation assay (Western blot of p24 and p25). To be noted: FIG. 2; p25 detected by Western blot. The format is cell-based.
Source text: as §1

Setting [5] is: Human immunodeficiency virus 1, NL43, HIV-NL4-3 in MT4 cells, average of at least two experiments, read-out: EC50 (concentration that inhibits HIV-1 replication by 50%).
Setting [6] is: 96 h, cytotoxicity, 4-day assay, MT4 cells, average of at least two experiments.
[7] abbreviates: Human immunodeficiency virus 1, NL43, MT4, read-out: EC50 (concentration that inhibits HIV-1 replication by 50%).

For the compound `C=C(C)[C@@H]1CC[C@]2(C(=O)On3nnc4ccccc43)CC[C@]3(C)[C@H](CC[C@@H]4[C@@]5(C)CC[C@H](OC(=O)C(C)(C)CC(=O)O)C(C)(C)[C@@H]5CC[C@]43C)[C@@H]12` [Compound 11, O-[3β-O-(2′,2′-Dimethylsuccinyl)-lup-20(29)-en-28-oyl]-1-hydroxybenzotriazole], the melting point (usually the temperature, or range, at which the solid turns liquid) was in the range of 151 to 154 °C. Also, the EC50 in data set [1] (setting [5]) is 35 nM. Further, the IC50 in data set [2] (setting [6]) is 2500 nM.

`C=C(C)[C@@H]1CC[C@]2(C(=O)NCCCCCCCNC(C)=O)CC[C@]3(C)[C@H](CC[C@@H]4[C@@]5(C)CC[C@H](OC(=O)CC(C)(C)C(=O)O)C(C)(C)[C@@H]5CC[C@]43C)[C@@H]12` [Compound 18, [[N-[3β-O-(3′,3′-Dimethylsuccinyl)-lup-20(29)-en-28-oyl]-7-aminoheptyl]-carbamoyl]methane] displayed a melting point of 117 to 120 °C. The “anti-fusion activity: HIV-1 envelope mediated membrane fusion” value in data set [3] is listed as “inhibits HIV-1 envelope mediated membrane fusion”. The “anti-maturation activity: HIV-1 p25 processing” value in data set [4] is reported as “interfere with HIV-1 p25 processing”. Further, the EC50 in data set [1] (setting [7]) was determined as 2.6 nM. For the same compound, the IC50 in data set [2] (MT4, 96 h) was 8000 nM.

Turning to `C=C(C)[C@@H]1CC[C@]2(C(=O)NCCCCCCNC(C)=O)CC[C@]3(C)[C@H](CC[C@@H]4[C@@]5(C)CC[C@H](OC(=O)CC(C)(C)C(=O)O)C(C)(C)[C@@H]5CC[C@]43C)[C@@H]12` [Compound 17, [[N-[3β-O-(3′,3′-Dimethylsuccinyl)-lup-20(29)-en-28-oyl]-6-aminohexyl]-carbamoyl]methane], the melting point was 137 °C (dec.). Moreover, the EC50 in data set [1] (setting [5]) was 7 nM. The IC50 in data set [2] (setting [6]) is 7500 nM.

The compound `C=C(C)[C@@H]1CC[C@]2(C(=O)NCCCCCCCCNC(C)=O)CC[C@]3(C)[C@H](CC[C@@H]4[C@@]5(C)CC[C@H](OC(=O)CC(C)(C)C(=O)O)C(C)(C)[C@@H]5CC[C@]43C)[C@@H]12` [Compound 19, [[N-[3β-O-(3′,3′-Dimethylsuccinyl)-lup-20(29)-en-28-oyl]-8-aminooctyl]-carbamoyl]methane] showed a melting point of 113 to 115 °C. Besides, the EC50 in data set [1] (setting [5]) was determined as 3.6 nM. The IC50 in data set [2] (setting [6]) is 7000 nM.

As to `C=C(C)[C@@H]1CC[C@]2(C(=O)NCCCCCCCCCNC(C)=O)CC[C@]3(C)[C@H](CC[C@@H]4[C@@]5(C)CC[C@H](OC(=O)CC(C)(C)C(=O)O)C(C)(C)[C@@H]5CC[C@]43C)[C@@H]12` [Compound 20, [[N-[3β-O-(3′,3′-Dimethylsuccinyl)-lup-20(29)-en-28-oyl]-9-aminonoyl]-carbamoyl]methane], the melting point lay within 120 to 122 °C. Further, the EC50 in data set [1] (setting [5]) worked out at 12 nM. Further, the IC50 in data set [2] (setting [6]) amounted to 7400 nM.

Consider `C=C(C)[C@@H]1CC[C@]2(C(=O)O)CC[C@]3(C)[C@H](CC[C@@H]4[C@@]5(C)CC[C@H](O)C(C)(C)[C@@H]5CC[C@]43C)[C@@H]12` [Betulinic acid], for which the “inhibition of NL4-3 replication” value in data set [1] (negative control, concentration not given) is listed as “did not inhibit”.

As to `C=C(C)[C@@H]1CC[C@]2(C(=O)NCCCCCCCNC(C)=O)CC[C@]3(C)[C@H](CC[C@@H]4[C@@]5(C)CC[C@H](O)C(C)(C)[C@@H]5CC[C@]43C)[C@@H]12` [Compound 18b, [[N-[3β-Hydroxy-lup-20(29)-en-28-oyl]-7-aminoheptyl]-carbamoyl]methane], the “anti-fusion activity: HIV-1 envelope mediated membrane fusion” value in data set [3] is reported as “inhibits HIV-1 envelope mediated membrane fusion”. For the same compound, in data set [1] (setting [7]), the EC50 is 47 nM. In data set [2] (MT4, 96 h), the IC50 is > 10000 nM.

As for `C=C(C)[C@@H]1CC[C@]2(C(=O)NCCCCCNC(C)=O)CC[C@]3(C)[C@H](CC[C@@H]4[C@@]5(C)CC[C@H](OC(=O)CC(C)(C)C(=O)O)C(C)(C)[C@@H]5CC[C@]43C)[C@@H]12` [Compound 16, [[N-[3β-O-(3′,3′-dimethylsuccinyl)-lup-20(29)-en-28-oyl]-5-aminopentyl]-carbamoyl]methane], the melting point was 137 °C (dec.). Moreover, the EC50 in data set [1] (setting [5]) amounted to 12 nM. Also, the IC50 in data set [2] (setting [6]) was 9000 nM.
